Experimental data reported in patent US9426996B2, “Use of benzoxaboroles as volatile antimicrobial agents on meats, plants, or plant parts” (AgroFresh Inc., priority 2013, dated 2016).

Key:
Botrytis cinerea [1] = assay: in vitro spore germination assay, temperature regimes; assay type: cell-based; settings: B. cinerea spores; for inhibition at 0.035 µg/mL: 0.035 mg/L; for inhibition at 0.07 µg/mL: 0.07 mg/L; for inhibition at 0.14 µg/mL: 0.14 mg/L
Protocol: (§1) In order to assess the activity of Compound A as a volatile fungicide, an in vitro assay is developed to evaluate spore germination. Two mL of water agar is poured in 3.5 cm Petri plates. […] Plates are then incubated for either one day at 0° C., five day at 0° C., or five day at 0° C. plus an additional one or two days at 21° C.

Penicillium expansum [2] = assay: as above; assay type: cell-based; settings: P. expansum spores; for inhibition at 0.035 µg/mL: 0.035 mg/L; for inhibition at 0.07 µg/mL: 0.07 mg/L; for inhibition at 0.14 µg/mL: 0.14 mg/L
Protocol: as §1

Botrytis cinerea [3] = assay: in vivo strawberry assay comparing fog and sublimation; settings: 10 mg/L, three day treatment plus three days at 21° C.
Protocol: To compare the ability of Compound A when actively volatilized by different mechanisms, an in vivo assay using strawberry is performed. Eight strawberries are placed in a clamshell with stem end facing downwards. […] The clamshell is placed in a 10.8-cup SnapWare airtight container (Model #109842) and closed with the lids. Compound A is dissolved in acetone and volatilized through a sealable ½ inch side port by an ES-100-H SmartFog system (Reno, Nev.). Alternatively, Compound A, dissolved in acetone, is pipetted onto a cotton strip, where the acetone is allowed to evaporate for five minutes, and then introduced into the container by a sublimation device (copper tube heated to 200° C. with fan flow at 0.5 L/min) to achieve a final headspace concentration of 10 mg/L. The fruits are stored for three days at 21° C. After the three days of treatment, fruit are stored for an additional three days at 21° C., and then evaluated for incidence (%) and severity of disease (0 to 4).

Botrytis cinerea [4] = assay: in vivo strawberry assay, release from cardboard or filter paper; settings: strawberries
Text: An in vivo assay is used to evaluate the ability of Compound A to volatilize from different materials and control fungal pathogens. Eight strawberries are placed in a clamshell with the stem end facing downwards. […] The clamshells are then placed in a 10.8-cup SnapWare airtight container (Model #109842). As a substrate for Compound A, either a 42.5 mm Whatman #1 filter disk (Cat. No. 1001-042) placed on a watch glass or 10 square centimeter (cm^2) pieces of cardboard typically used for packaging strawberries was used. Compound A is dissolved in acetone and either pipetted on the disk or painted on the cardboard at a rate to achieve a final headspace concentration of 0.4, 2, or 10 mg/L. The acetone is permitted to evaporate for five minutes. The containers are closed, and placed for three days at 21° C. After treatment, fruit are stored for an additional two days at 21° C. and then evaluated for incidence (%) and severity (0 to 4) of disease, with the results summarized in Table 24.

Botrytis cinerea [5] = assay: in vivo sublimation bioassay on fruit, 10 mg/L (Example 22); settings: 10 mg/L sublimed, three day treatment plus three days at 21° C.
Protocol: (§2) To assess the in vivo activity of volatile antimicrobial Compound A (FIG. 1) in fruit, a volatile bioassay is developed using apple, pear, orange, strawberry, grape and blueberry. Two apples, 2 oranges, 2 pears, 8 strawberries, 16 grapes or 30 blueberries (per replicate, in duplicate) are placed in a clamshell with the stem end facing up for all fruits except for strawberry (stem end facing downwards). A fresh wound is inoculated with 20 μL 1×10^6 per mL Penicillium expansum spore suspension (apple and pear), 20 μL 1×10^6 per mL Penicillium digitatum spore suspension (orange), and 20 μL (strawberry and grape) or 10 μL (blueberry) of 1×10^6 per mL Botrytis cinerea spore suspension. The clamshells are placed inside a 117 L Rubbermaid storage box (Cat #2244) with lids closed. Compound A, dissolved in acetone, is pipetted onto a cotton strip, where the acetone is allowed to evaporate for five minutes, and then introduced into the container by a sublimation device (copper tube heated to 200° C. with fan flow at 0.5 L/min) to achieve a final headspace concentration of 10 mg/L. The containers are then held for three days at 21° C. After treatment, fruits are held for an additional three days at 21° C., then evaluated for disease incidence (mm diameter of browning or water-soaked lesions) and pathogen sporulation (mm diameter) for apple, pear and orange, as well as Botrytis cinerea disease incidence (%) and severity (0 to 4) for strawberry, grape and blueberry, with results summarized in Table 21.

Penicillium expansum [6] = assay: as above; settings: 10 mg/L sublimed, three day treatment plus three days at 21° C.
Protocol: as §2

Penicillium digitatum = assay: as above; settings: Orange; 10 mg/L sublimed; three day treatment plus three days at 21° C.
Protocol: as §2

Question: How did the inhibition at 0.035 µg/mL (Botrytis cinerea [1]; 24 h, 1 day, 0° C.) turn out when `OB1OCc2cc(F)ccc21` [Compound A] was run?
Answer: 0%

Question: And the inhibition at 0.07 µg/mL (Botrytis cinerea [1]; 24 h, 1 day, 0° C.)?
Answer: 0%

Question: And the inhibition at 0.14 µg/mL (Botrytis cinerea [1]; 24 h, 1 day, 0° C.)?
Answer: 0%

Question: What about the inhibition at 0.035 µg/mL (Botrytis cinerea [1]; 120 h, 5 day, 0° C.) of the same compound?
Answer: 0%

Question: And the inhibition at 0.07 µg/mL (Botrytis cinerea [1]; 120 h, 5 day, 0° C.)?
Answer: 0%

Question: And the inhibition at 0.14 µg/mL (Botrytis cinerea [1]; 120 h, 5 day, 0° C.)?
Answer: 0%

Question: And the inhibition at 0.035 µg/mL (Botrytis cinerea [1]; 5 day, 0° C. 1 day, 21° C.)?
Answer: 0%

Question: And the inhibition at 0.07 µg/mL (Botrytis cinerea [1]; 5 day, 0° C. 1 day, 21° C.)?
Answer: 0%

Question: What about the inhibition at 0.14 µg/mL (Botrytis cinerea [1]; 5 day, 0° C. 1 day, 21° C.) of the same compound?
Answer: 0%

Question: What about the inhibition at 0.035 µg/mL (Penicillium expansum [2]; 24 h, 1 day, 0° C.) of the same compound?
Answer: 0%

Question: And the inhibition at 0.07 µg/mL (Penicillium expansum [2]; 24 h, 1 day, 0° C.)?
Answer: 0%

Question: What about the inhibition at 0.14 µg/mL (Penicillium expansum [2]; 24 h, 1 day, 0° C.) of the same compound?
Answer: 0%

Question: And the inhibition at 0.035 µg/mL (Penicillium expansum [2]; 120 h, 5 day, 0° C.)?
Answer: 0%

Question: What about the inhibition at 0.07 µg/mL (Penicillium expansum [2]; 120 h, 5 day, 0° C.) of the same compound?
Answer: 0%

Question: What about the inhibition at 0.14 µg/mL (Penicillium expansum [2]; 120 h, 5 day, 0° C.) of the same compound?
Answer: 0%

Question: And the inhibition at 0.035 µg/mL (Penicillium expansum [2]; 5 day, 0° C. 1 day, 21° C.)?
Answer: 0%

Question: What about the inhibition at 0.07 µg/mL (Penicillium expansum [2]; 5 day, 0° C. 1 day, 21° C.) of the same compound?
Answer: 0%

Question: What about the inhibition at 0.14 µg/mL (Penicillium expansum [2]; 5 day, 0° C. 1 day, 21° C.) of the same compound?
Answer: 0%

Question: And the “Incidence (%)” value (Botrytis cinerea [3]; Fog)?
Answer: 6.3%

Question: And the “Severity (0 to 4)” value (Botrytis cinerea [3]; Fog)?
Answer: 0.03

Question: And the “Incidence (%)” value (Botrytis cinerea [3]; Sublimation)?
Answer: 0.0%

Question: What about the “Severity (0 to 4)” value (Botrytis cinerea [3]; Sublimation) of the same compound?
Answer: 0.0

Question: And the “Incidence (%)” value (Botrytis cinerea [4]; 0.4 mg/L, Cardboard)?
Answer: 87.5%

Question: What about the “Severity (0-4)” value (Botrytis cinerea [4]; 0.4 mg/L, Cardboard) of the same compound?
Answer: 0.9

Question: And the “Incidence (%)” value (Botrytis cinerea [4]; 0.4 mg/L, Filter Paper)?
Answer: 56.3%

Question: What about the “Severity (0-4)” value (Botrytis cinerea [4]; 0.4 mg/L, Filter Paper) of the same compound?
Answer: 2.5

Question: What about the “Incidence (%)” value (Botrytis cinerea [4]; 2 mg/L, Cardboard) of the same compound?
Answer: 37.5%

Question: What about the “Severity (0-4)” value (Botrytis cinerea [4]; 2 mg/L, Cardboard) of the same compound?
Answer: 0.3

Question: What about the “Incidence (%)” value (Botrytis cinerea [4]; 2 mg/L, Filter Paper) of the same compound?
Answer: 37.5%

Question: What about the “Severity (0-4)” value (Botrytis cinerea [4]; 2 mg/L, Filter Paper) of the same compound?
Answer: 0.6

Question: What about the “Incidence (%)” value (Botrytis cinerea [4]; 10 mg/L, Cardboard) of the same compound?
Answer: 25%

Question: And the “Severity (0-4)” value (Botrytis cinerea [4]; 10 mg/L, Cardboard)?
Answer: 0.2

Question: What about the “Incidence (%)” value (Botrytis cinerea [4]; 10 mg/L, Filter Paper) of the same compound?
Answer: 18.8%

Question: And the “Severity (0-4)” value (Botrytis cinerea [4]; 10 mg/L, Filter Paper)?
Answer: 0.3

Question: And the “Incidence (%)” value (Botrytis cinerea [5]; Blueberry)?
Answer: 5%

Question: What about the “Severity (0-4)” value (Botrytis cinerea [5]; Blueberry) of the same compound?
Answer: 0.03

Question: And the “Incidence (%)” value (Botrytis cinerea [5]; Grape)?
Answer: 26.7%

Question: And the “Severity (0-4)” value (Botrytis cinerea [5]; Grape)?
Answer: 0.1

Question: What about the “Incidence (%)” value (Botrytis cinerea [5]; Strawberry) of the same compound?
Answer: 18.8%

Question: And the “Severity (0-4)” value (Botrytis cinerea [5]; Strawberry)?
Answer: 0.09

Question: And the “Browning (mm)” value (Penicillium expansum [6]; Apple)?
Answer: 5.4 mm

Question: What about the “Sporulation (mm)” value (Penicillium expansum [6]; Apple) of the same compound?
Answer: 0 mm

Question: What about the “Browning (mm)” value (Penicillium expansum [6]; Pear) of the same compound?
Answer: 2.7 mm

Question: What about the “Sporulation (mm)” value (Penicillium expansum [6]; Pear) of the same compound?
Answer: 0 mm

Question: What about the “Sporulation (mm)” value (Penicillium digitatum) of the same compound?
Answer: 8.55 mm

Question: And the Water soaked lesion (Penicillium digitatum)?
Answer: 3.04 mm
